# pKd: −log10 of the molar value.
# Assays:
# Assay in all cases: SSM electrophysiology, kobs of pre-steady state current vs concentration
# Type in all cases: biochemical
# [1] = target: T1, DgoT (Escherichia coli, UniProt A0A0H2Z574, E133Q)
# T1 sequence (A0A0H2Z574 1-445 E133Q): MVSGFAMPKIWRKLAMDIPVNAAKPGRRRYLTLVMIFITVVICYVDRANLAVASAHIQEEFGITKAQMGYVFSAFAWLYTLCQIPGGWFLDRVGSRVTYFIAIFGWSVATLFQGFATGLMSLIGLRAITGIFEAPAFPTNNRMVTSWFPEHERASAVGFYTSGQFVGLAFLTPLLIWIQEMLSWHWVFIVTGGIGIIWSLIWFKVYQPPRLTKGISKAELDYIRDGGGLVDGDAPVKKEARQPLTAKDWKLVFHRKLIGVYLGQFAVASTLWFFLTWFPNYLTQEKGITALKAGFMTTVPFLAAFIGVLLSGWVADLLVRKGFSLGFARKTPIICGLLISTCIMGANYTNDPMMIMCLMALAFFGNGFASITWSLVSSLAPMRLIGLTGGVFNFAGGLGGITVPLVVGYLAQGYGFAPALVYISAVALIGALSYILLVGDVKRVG
# Excerpt: (§1) SSM electrophysiology, kobs of pre-steady state current vs concentration on DgoT
# [2] = target: T2, DgoT (Escherichia coli, UniProt A0A0H2Z574)
# T2 sequence (A0A0H2Z574 1-445): T1 sequence (A0A0H2Z574 1-445 E133Q)
# Excerpt: as §1
# [3] = target: T3, DgoT (Escherichia coli, UniProt A0A0H2Z574, D46N)
# T3 sequence (A0A0H2Z574 1-445 D46N): T1 sequence (A0A0H2Z574 1-445 E133Q)
# Excerpt: as §1
# [4] = target: T4, DgoT (Escherichia coli, UniProt A0A0H2Z574, R126Q)
# T4 sequence (A0A0H2Z574 1-445 R126Q): T1 sequence (A0A0H2Z574 1-445 E133Q)
# Excerpt: as §1
compound,measurement,setting,value
O=C(O)[C@H](O)[C@@H](O)[C@@H](O)[C@H](O)CO [D-galactonate],pKd,[1],1.82
same,pKd,[2],1.82
same,pKd,[3],1.96
same,pKd,[4],1.66

# — publication PMC11649914, “Transport mechanism of DgoT, a bacterial homolog of SLC17 organic anion transporters” (The EMBO Journal, 2024)
